Where two headings read alike, the source gives them in different places. Values belong to the molecule of their own block, whether it stands above or below them.
What was measured:
CYP1A2 = CYP1A2 (Homo sapiens, UniProt P05177); details: cited from earlier work
[1] = system: human cryopreserved hepatocytes
Method: (§1) Mebendazole (1 μM) was incubated with cryopreserved human hepatocytes for 60 min in the absence and presence of cimetidine at 30, 100 and 300 μM) and thiabendazole at 10, 30 and 100 μM and samples taken at the required time points. The amount of test compound remaining at each time point was analysed by LC-MS/MS. Appropriate control compounds were also incubated along with ethoxycoumarin, which was incubated in the absence and presence of cimetidine and thiabendazole.
(§2) The final incubation volume was 500 μL. Two control compounds were included, alongside appropriate vehicle control. A positive control compound, ethoxycoumarin, for CYP1A2 was included. The positive control compound was incubated without inhibitor and in the presence of each inhibitor. The reactions were stopped by transferring 50 μL of incubate to 100 μL acetonitrile containing internal standard at the appropriate time points (0, 5, 10, 20, 40 and 60 min). The termination plates were centrifuged at 2500 rpm at 4° C. for 30 min to precipitate the protein.

in vitro = details: human, cryopreserved hepatocytes, probe mebendazole 1 µM (intrinsic clearance)
Method: (§3) The amount of test compound remaining at each time point was analysed by LC-MS/MS. Appropriate control compounds were also incubated.
(§4) The final incubation volume was 500 μL. Appropriate control compounds were included, alongside appropriate vehicle control.
(§5) The reactions were stopped by transferring 50 μL of incubate to 100 μL acetonitrile containing internal standard at the appropriate time points (0, 5, 10, 20, 40 and 60 min). The termination plates were centrifuged at 2500 rpm at 4° C. for 30 min to precipitate the protein.

[2] = system: human cryopreserved hepatocytes; remark: listed apart in the source
Method: as §3, §4, §5

[3] = system: human cryopreserved hepatocytes; details: for reduction of metabolism of mebendazole: initial experiments
Method: as §3, §4, §5

[4] = system: human cryopreserved hepatocytes; assay: Stability in human cryopreserved hepatocytes without and with cimetidine or furafylline (Example 5); format: in vitro ADME; details: human hepatocytes, largest effect over concentrations tested
Method: The final incubation volume was 500 μL. Two control compounds were included with each species, alongside appropriate vehicle control.
The samples were analysed for mebendazole or ethoxycoumarin using LC-MS/MS.
The final incubation volume was 500 μL.
A positive control compound, ethoxycoumarin, for CYP1A2 was included. […] The samples were analysed for mebendazole or ethoxycoumarin using LC-MS/MS.

[5] = system: human cryopreserved hepatocytes; assay: Stability in human cryopreserved hepatocytes without and with cimetidine or thiabendazole (Example 6); details: human hepatocytes, largest effect over concentrations tested
Method: as §1, §2

[6] = Stability in human liver microsomes without and with cimetidine or furafylline (Example 4); format: in vitro ADME; details: human liver microsomes, largest effect over concentrations tested
Method: A minus cofactor control incubation was included for each compound tested where 0.1 M phosphate buffer pH 7.4 was added instead of NADPH (minus NADPH). […] The samples were analysed for mebendazole or phenacetin using LC-MS/MS.
A minus cofactor control incubation was included for each compound tested where 0.1 M phosphate buffer pH 7.4 was added instead of cofactor (minus NADPH). […] The samples were analysed for mebendazole or phenacetin using LC-MS/MS.

human BCRP transporter = human BCRP transporter (Homo sapiens, UniProt Q9UNQ0); details: Caco-2
Sequence of human BCRP transporter (Q9UNQ0 whole entry): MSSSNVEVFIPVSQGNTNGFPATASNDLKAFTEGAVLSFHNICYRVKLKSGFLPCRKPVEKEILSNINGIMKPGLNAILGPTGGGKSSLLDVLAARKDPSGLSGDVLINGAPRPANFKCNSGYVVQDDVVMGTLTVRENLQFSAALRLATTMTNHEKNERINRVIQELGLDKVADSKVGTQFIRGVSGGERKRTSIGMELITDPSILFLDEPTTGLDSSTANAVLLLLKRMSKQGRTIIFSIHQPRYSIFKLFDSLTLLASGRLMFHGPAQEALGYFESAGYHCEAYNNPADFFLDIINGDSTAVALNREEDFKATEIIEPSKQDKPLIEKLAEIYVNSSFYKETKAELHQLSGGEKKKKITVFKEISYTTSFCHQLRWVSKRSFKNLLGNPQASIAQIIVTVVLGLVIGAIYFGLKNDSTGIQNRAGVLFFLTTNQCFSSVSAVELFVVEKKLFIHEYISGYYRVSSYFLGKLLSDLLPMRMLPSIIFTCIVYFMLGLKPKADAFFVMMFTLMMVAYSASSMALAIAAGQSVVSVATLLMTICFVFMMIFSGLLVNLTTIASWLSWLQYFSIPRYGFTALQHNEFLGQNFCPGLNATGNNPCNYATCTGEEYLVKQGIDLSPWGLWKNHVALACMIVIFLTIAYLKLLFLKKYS
Source text: Bidirectional apparent permeability of test compound was quantified by LC-MS/MS and used to determine an efflux ratio.

Sequence of CYP1A2 (P05177 whole entry): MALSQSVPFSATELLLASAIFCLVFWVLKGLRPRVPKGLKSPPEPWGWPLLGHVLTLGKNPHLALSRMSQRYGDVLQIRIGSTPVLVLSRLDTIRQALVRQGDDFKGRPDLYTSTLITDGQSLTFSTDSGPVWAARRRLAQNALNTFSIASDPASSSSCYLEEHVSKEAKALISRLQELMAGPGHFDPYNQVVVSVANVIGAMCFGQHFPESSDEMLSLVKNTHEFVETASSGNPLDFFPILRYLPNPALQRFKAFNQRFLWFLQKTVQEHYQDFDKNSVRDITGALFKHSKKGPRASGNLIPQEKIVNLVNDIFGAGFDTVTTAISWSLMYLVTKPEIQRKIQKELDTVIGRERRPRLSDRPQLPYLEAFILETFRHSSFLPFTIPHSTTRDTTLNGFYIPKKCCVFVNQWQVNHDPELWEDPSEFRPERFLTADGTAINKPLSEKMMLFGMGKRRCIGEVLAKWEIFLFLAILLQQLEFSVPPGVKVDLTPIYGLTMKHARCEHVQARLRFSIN

Structure (SMILES): c1ccc2[nH]c(-c3cscn3)nc2c1 [Thiabendazole]
IC50 (CYP1A2; read-out: IC50 value for CYP1A2 inhibition): 830 nM
Ki (CYP1A2; read-out: inhibition constant (Ki) value for CYP1A2 inhibition): 1540 nM
decrease of mebendazole metabolism in presence of the inhibitor [1]: 6.4 fold
inhibition of intrinsic clearance of mebendazole [1]: 84%

Structure (SMILES): C[C@]12CC[C@@H]3c4ccc(OS(=O)(=O)O)cc4CC[C@H]3[C@@H]1CCC2=O [Estrone-3-sulfate]
efflux ratio (ER) of positive control substrate (human BCRP transporter): 128

Now from value to molecule:

inhibition at 10 µM (in vitro): 95%
reduction of metabolism of mebendazole ([2]; fluvoxamine 10 to 300 μM, maximum as seen at 10 μM): up to 20.2 fold
reduction of metabolism of mebendazole ([3]; at 30 μM fluvoxamine): 2.3 fold
Structure (SMILES): COCCCC/C(=N\OCCN)c1ccc(C(F)(F)F)cc1 [Fluvoxamine]

inhibition at 30 µM (in vitro): 87%
reduction of metabolism of mebendazole ([2]; mexiletine 10 to 300 μM, maximum as seen at 30 μM): up to 7.8 fold
reduction of metabolism of mebendazole ([3]; at 10 μM mexiletine): 2.7 fold
Structure (SMILES): Cc1cccc(C)c1OCC(C)N (centres unmarked) [Mexiletine]

decrease of mebendazole metabolism in presence of the inhibitor [4]: 1.3 fold
inhibition of intrinsic clearance of mebendazole [4]: 25%
effect on metabolism of mebendazole ([3]; in the presence of cimetidine (30-300 μM)): not decreased
decrease of mebendazole metabolism in presence of the inhibitor [5]: 1.2 fold
inhibition of intrinsic clearance of mebendazole [5]: 19%
inhibition of intrinsic clearance of mebendazole [6]: 32%
Structure (SMILES): CN/C(=N/CCSCc1nc[nH]c1C)NC#N [Cimetidine]

— US20220125765A1, “PHARMACEUTICAL COMBINATIONS COMPRISING MEBENDAZOLE AND A STRONG OR MODERATE CYP1A2 INHIBITOR” (ZEPHAPHARM LTD, priority 2019, published 2022)
